According to patent publication US9169241B2, “Quinolinyloxyphenylsulfonamides” (Max-Planck-Gesellschaft Zur Forderung der Wissenschaften …, priority 2009, dated 2015):
Counter-ions that a name gives are not always drawn. Like-named read-outs stand apart in the source and are kept apart here.

Columns and labels:
[1] = tested on: viable cells in culture; experiment: Cell viability assay at 10 μM (CellTiter-Glo, Table VII); format: cell-based; conditions: compound 10 μM, 72 h;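 further: graded A 0-20%; B 21-40%; C 41-60%; D over 60% viable cells relative to DMSO control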
Method: The CellTiter-Glo® Luminescent Cell Viability Assay (Promega Corporation. Madison, Wis., USA) is method a determining the number of viable cells in culture based on quantification of the ATP being present which is an indicator of metabolically active cells was used according to manufacturers protocol. In detail the assay was performed in a 96 well format were 1000 cells/well were incubated with compound at concentration 10 μM as well as DMSO control for 72 h in 100 μl cell culture medium. Percentage of inhibition was calculated compared to ATP amount of DMSO control.

Structure (SMILES)	melting point	other results
COc1cc2c(Oc3ccc(NS(=O)(=O)c4cc(Cl)ccc4Cl)cc3F)ccnc2cc1OCCCN1CCN(C)CC1 [Example 20, 2,5-Dichloro-N-(3-fluoro-4-{6-methoxy-7-[3-(4-methyl-piperazin-1-yl)-propoxy]-quinolin-4-yloxy}-phenyl)-benzenesulfonamide]	134 to 136 °C	viability at 10 µM ([1]; Homo sapiens, HCT-116, HCT116 def, read-out: percentage (%) of viable cells HCT 116def): 21 to 40%; viability at 10 µM ([1]; Homo sapiens, HCT-116, HCT116 wt, read-out: percentage (%) of viable cells HCT 116wt): 0 to 20%; viability at 10 µM ([1]; Homo sapiens, HT-29, HT29, read-out: percentage (%) of viable cells HT29): 0 to 20%; viability at 10 µM ([1]; Homo sapiens, NCI-H358, H358, read-out: percentage (%) of viable cells H358): 0 to 20%; viability at 10 µM ([1]; Homo sapiens, NCI-H1650, H1650, read-out: percentage (%) of viable cells H1650): 21 to 40%; viability at 10 µM ([1]; Homo sapiens, NCI-H1666, H1666, read-out: percentage (%) of viable cells H1666): 21 to 40%; viability at 10 µM ([1]; Homo sapiens, NCI-H1975, H1975, read-out: percentage (%) of viable cells H1975): 21 to 40%; viability at 10 µM ([1]; Homo sapiens, NCI-H1993, H1993, read-out: percentage (%) of viable cells H1993): 21 to 40%; viability at 10 µM ([1]; Homo sapiens, A549, read-out: percentage (%) of viable cells A549): > 60%; viability at 10 µM ([1]; Homo sapiens, HCC827, read-out: percentage (%) of viable cells HCC827): 41 to 60%; viability at 10 µM ([1]; Homo sapiens, SW480, read-out: percentage (%) of viable cells SW480): 0 to 20%; viability at 10 µM ([1]; RKO, read-out: percentage (%) of viable cells RKO): 0 to 20%
COc1cc2c(Oc3ccc(NS(=O)(=O)C4CC4)cc3F)ccnc2cc1OCCCN1CCCC(C)C1 (centres unmarked) [Example 60, Cyclopropanesulfonic acid (3-fluoro-4-{6-methoxy-7-[3-(3-methyl-piperidin-1-yl)-propoxy]-quinolin-4-yloxy}-phenyl)-amide]	158 to 160 °C	–
COc1cc2c(Oc3ccc(NS(=O)(=O)c4cccs4)cc3F)ccnc2cc1OCCCN1CCN(C)CC1 [Example 31, Thiophene-2-sulfonic acid (3-fluoro-4-{6-methoxy-7-[3-(4-methyl-piperazin-1-yl)-propoxy]-quinolin-4-yloxy}-phenyl)-amide]	201 to 202 °C	–
CCCCS(=O)(=O)Nc1ccc(Oc2ccnc3cc(OCCCN4CCOCC4)c(OC)cc23)c(F)c1 [Example 79, Butane-1-sulfonic acid {3-fluoro-4-[6-methoxy-7-(3-morpholin-4-yl-propoxy)-quinolin-4-yloxy]-phenyl}-amide]	98 to 100 °C	–
COc1cc2c(Oc3ccc(NS(=O)(=O)c4ccn(C)n4)cc3F)ccnc2cc1OCCN1CCOCC1 [Example 107, 1-Methyl-1H-pyrazole-3-sulfonic acid {3-fluoro-4-[6-methoxy-7-(2-morpholin-4-yl-ethoxy)-quinolin-4-yloxy]-phenyl}-amide]	213 to 214 °C	–
COc1cc2c(Oc3ccc(NS(=O)(=O)c4ccccc4C(F)(F)F)cc3F)ccnc2cc1OCCCCN1CCOCC1 [Example 214, N-{3-Fluoro-4-[6-methoxy-7-(4-morpholin-4-yl-butoxy)-quinolin-4-yloxy]-phenyl}-2-trifluoromethyl-benzenesulfonamide]	102 to 104 °C	–
COc1cc2c(Oc3ccc(NS(=O)(=O)c4cc(F)ccc4F)cc3F)ccnc2cc1OCCCN (as salt: hydrochloride) [Example 122, N-{4-[7-(3-Amino-propoxy)-6-methoxy-quinolin-4-yloxy]-3-fluoro-phenyl}-2,5-difluoro-benzenesulfonamide hydrochloride]	188 to 190 °C	–
COc1cccc(S(=O)(=O)Nc2ccc(Oc3ccnc4cc(OCCCN5CCCC(C)C5)c(OC)cc34)c(F)c2)c1 (centres unmarked) [Example 42, N-(3-Fluoro-4-{6-methoxy-7-[3-(3-methyl-piperidin-1-yl)-propoxy]-quinolin-4-yloxy}-phenyl)-3-methoxy-benzenesulfonamide]	172 to 174 °C	–
COc1cc2c(Oc3ccc(NS(=O)(=O)c4cccs4)cc3F)ccnc2cc1OCCN1CCOCC1 [Example 105, Thiophene-2-sulfonic acid {3-fluoro-4-[6-methoxy-7-(2-morpholin-4-yl-ethoxy)-quinolin-4-yloxy]-phenyl}-amide]	146 to 147 °C	–
COc1cc2c(Oc3ccc(NS(=O)(=O)c4ccn(C)n4)cc3F)ccnc2cc1OCCCN1CCCC(C)C1 (centres unmarked) [Example 61, 1-Methyl-1H-pyrazole-3-sulfonic acid (3-fluoro-4-{6-methoxy-7-[3-(3-methyl-piperidin-1-yl)-propoxy]-quinolin-4-yloxy}-phenyl)-amide]	164 to 166 °C	–
CCn1cc(S(=O)(=O)Nc2ccc(Oc3ccnc4cc(OCCCN5CCCC(C)C5)c(OC)cc34)c(F)c2)cn1 (centres unmarked) [Example 68, 1-Ethyl-1H-pyrazole-4-sulfonic acid (3-fluoro-4-{6-methoxy-7-[3-(3-methyl-piperidin-1-yl)-propoxy]-quinolin-4-yloxy}-phenyl)-amide]	152 to 154 °C	–
COc1cc2c(Oc3ccc(NS(=O)(=O)/C=C/c4ccccc4)cc3F)ccnc2cc1OCCCN1CCCC(C)C1 (centres unmarked) [Example 73, 2-Phenyl-ethenesulfonic acid (3-fluoro-4-{6-methoxy-7-[3-(3-methyl-piperidin-1-yl)-propoxy]-quinolin-4-yloxy}-phenyl)-amide]	104 to 106 °C	–

Now from value to compound, other results behind:

melting point	Structure (SMILES)	other results
190 to 191 °C	COc1cc2c(Oc3ccc(NS(=O)(=O)c4cccc5cccnc45)cc3F)ccnc2cc1OCCCN1CCCC(C)C1 (centres unmarked) [Example 74, Quinoline-8-sulfonic acid (3-fluoro-4-{6-methoxy-7-[3-(3-methyl-piperidin-1-yl)-propoxy]-quinolin-4-yloxy}-phenyl)-amide]	–
152 to 156 °C	COc1cc2c(Oc3ccc(NS(=O)(=O)c4ccccc4C(F)(F)F)c(F)c3)ccnc2cc1OCCCN1CCCC1 [Example 213, N-{2-Fluoro-4-[6-methoxy-7-(3-pyrrolidin-1-yl-propoxy)-quinolin-4-yloxy]-phenyl}-2-trifluoromethyl-benzenesulfonamide]	–
95 to 97 °C	COc1cc2c(Oc3ccc(NS(=O)(=O)c4cccc(OC(F)F)c4)cc3F)ccnc2cc1OCCCN1CCN(C)CC1 [Example 30, 3-Difluoromethoxy-N-(3-fluoro-4-{6-methoxy-7-[3-(4-methyl-piperazin-1-yl)-propoxy]-quinolin-4-yloxy}-phenyl)-benzenesulfonamide]	–
128 to 130 °C	COc1cc2c(Oc3ccc(NS(=O)(=O)c4cccc(C(F)(F)F)c4)cc3F)ccnc2cc1OCCCN1CCCC(C)C1 (centres unmarked) [Example 39, ′N-(3-Fluoro-4-{6-methoxy-7-[3-(3-methyl-piperidin-1-yl)-propoxy]-quinolin-4-yloxy}-phenyl)-3-trifluoromethyl-benzenesulfonamide]	–
186 to 188 °C	COc1cc2c(Oc3cccc(NS(=O)(=O)c4cc(F)ccc4F)c3)ccnc2cc1OCCCN1CCN(C)CC1 [Example 123, 2,5-Difluoro-N-(3-{6-methoxy-7-[3-(4-methyl-piperazin-1-yl)-propoxy]-quinolin-4-yloxy}-phenyl)-benzenesulfonamide]	–
125 to 126 °C	COc1cc2c(Oc3ccc(NS(=O)(=O)c4ccccc4C(F)(F)F)c(F)c3)ccnc2cc1OCCCN1CCCC(C)C1 (centres unmarked) [Example 215, N-(2-Fluoro-4-{6-methoxy-7-[3-(3-methyl-piperidin-1-yl)-propoxy]-quinolin-4-yloxy}-phenyl)-2-trifluoromethyl-benzenesulfonamide]	–
175 to 176 °C	COc1cc2c(Oc3ccc(NS(=O)(=O)c4ccccc4OC)cc3F)ccnc2cc1OCCCN1CCCC(C)C1 (centres unmarked) [Example 71, N-(3-Fluoro-4-{6-methoxy-7-[3-(3-methyl-piperidin-1-yl)-propoxy]-quinolin-4-yloxy}-phenyl)-2-methoxy-benzenesulfonamide]	–
110 to 112 °C	COc1cc2c(Oc3ccc(NS(=O)(=O)c4cccc(Cl)c4)cc3F)ccnc2cc1OCCCN1CCCC(C)C1 (centres unmarked) [Example 69, 3-Chloro-N-(3-fluoro-4-{6-methoxy-7-[3-(3-methyl-piperidin-1-yl)-propoxy]-quinolin-4-yloxy}-phenyl)-benzenesulfonamide]	–
182 to 183 °C	COc1cc2c(Oc3ccc(NS(=O)(=O)c4ccccc4OC)cc3F)ccnc2cc1OCCN1CCOCC1 [Example 103, N-{3-Fluoro-4-[6-methoxy-7-(2-morpholin-4-yl-ethoxy)-quinolin-4-yloxy]-phenyl}-2-methoxy-benzenesulfonamide]	–
106 to 108 °C	COc1cc2c(Oc3ccc(NS(=O)(=O)c4ccccc4C(F)(F)F)cc3F)ccnc2cc1OCCCNC(=O)NC(C)(C)C [Example 98, N-(4-{7-[3-(3-tert-Butyl-ureido)-propoxy]-6-methoxy-quinolin-4-yloxy}-3-fluoro-phenyl)-2-trifluoromethyl-benzenesulfonamide]	–
214 to 216 °C	COc1cc2c(Oc3ccc(NS(=O)(=O)c4ccccc4F)cc3F)ccnc2cc1OCCCN1CCCCC1 [Example 2, 2-Fluoro-N-{3-fluoro-4-[6-methoxy-7-(3-piperidin-1-yl-propoxy)-quinolin-4-yloxy]-phenyl}-benzenesulfonamide]	–
